From patent US6579893B1, “Use of troglitazone and related compounds for the treatment of cancer” (Board of Regents, The University of Texas System, priority 1997, dated 2003)

Assays:
porcine granulosa cells [1] = test: Progesterone production by cultured porcine granulosa cells; type: cell-based; conditions: for suppression of progesterone production, dose-response: serum-free medium, varying concentrations, 24 h (FIG. 1)
Text: FlG. 1. Dose-response of progesterone production suppression in porcine granulosa cells treated with Troglitazone and related thiazolidinedione compounds. […] . […] Progesterone concentrations were corrected for DNA content in treated cells and are presented as a percentage of basal corrected progesterone production.
FIG. 2. Time course of Troglitazone suppression of progesterone production by porcine granulosa cells. […] .
FIG. 4. Effects of 25-OH cholesterol on Troglitazone suppression of porcine granulosa cell progesterone production. […] .
Initial studies investigated the dose-response of Troglitazone and related compounds on progesterone production in cultures of porcine granulosa cells. Porcine granulosa cells were isolated from 1- to 5-mm follicles of ovaries from immature swine (60-70 kg) obtained from a local slaughterhouse (Urban et al. 1994). The cells were plated in Eagle's minimum essential medium and 3% fetal calf serum (FCS) at a concentration of 20-30 million cells 60-mm dish for 12-16 h to facilitate granulosa cell attachment to the plates. Monolayer cultures were maintained at 37° C. in 5% CO2 throughout the study. After granulosa cell attachment, medium containing the FCS was discarded and serum-free medium with varying concentrations of Troglitazone, pioglitazone and BRL 49653 was added for 24 h. One ml of medium was collected for measurement of progesterone by an assay previously described that uses the chromatographic separation of steroids to enhance specificity (Urban et al. 1994). […] . The time course for the suppression of progesterone was done in the same porcine granulosa cell culture system. […] . The suppression of progesterone production in porcine granulosa cells by Troglitazone could be due to effects of the drug on the supply of cholesterol to the mitochondria. Before investigating proteins in the pathway of cholesterol transport to the mitochondria, it was first tested whether Troglitazone would inhibit progesterone production when cells were co-treated with 25-OH cholesterol. This compound diffuses directly to the P-450 cholesterol side-chain cleavage enzyme (P-450scc) in the mitochondria and acts as a substrate for progesterone production (Veldhuis and Furlanetto, 1985). […] .

PPARγ [2] = test: EMSA of porcine granulosa cell nuclear extract with consensus PPRE (DR-1) oligonucleotide; type: cell-based; conditions: 15 μg nuclear extract protein, EMSA (FIG. 6)
Text: The nuclear extract was mixed with radioactively-labeled consensus PPRE as described in FIG. 6.

PPARγ [3] = conditions: cited from earlier work
PPARα = molecular target: T1, PPARα (Homo sapiens, UniProt Q07869); conditions: cited from earlier work
T1 sequence (Q07869 1-468): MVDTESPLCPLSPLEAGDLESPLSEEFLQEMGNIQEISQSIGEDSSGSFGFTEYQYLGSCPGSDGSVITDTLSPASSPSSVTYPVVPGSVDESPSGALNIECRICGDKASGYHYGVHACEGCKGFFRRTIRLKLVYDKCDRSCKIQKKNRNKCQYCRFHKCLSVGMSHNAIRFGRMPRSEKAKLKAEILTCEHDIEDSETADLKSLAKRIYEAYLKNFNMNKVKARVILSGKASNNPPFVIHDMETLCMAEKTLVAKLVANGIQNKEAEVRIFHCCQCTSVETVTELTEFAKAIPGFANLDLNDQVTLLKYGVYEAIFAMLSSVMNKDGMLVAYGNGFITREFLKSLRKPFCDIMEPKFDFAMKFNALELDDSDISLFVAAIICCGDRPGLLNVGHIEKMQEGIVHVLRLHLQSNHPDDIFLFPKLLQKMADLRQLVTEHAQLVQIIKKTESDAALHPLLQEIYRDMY

porcine granulosa cells [4] = test: Cell viability of porcine granulosa cells (MTS to formazan); type: cell-based; conditions: even at the highest doses, 100 μg ml (FIG. 3)
Protocol: FIG. 3. Cell viability porcine granulosa cells during treatment with Troglitazone. Porcine granulosa cells were treated with various concentrations of Troglitazone and cell viability determined using a MTS dye oxidation method. This method is based on the ability of dehydrogenase enzymes found in metabolically active cells to oxidize MTS to formazan. This compound is soluble in tissue culture medium.
Therefore, cell viability was tested in these cells using a colorimetric assay that is dependent on the oxidation of MTS to formazan (absorbance measured at 490 nm ) by dehydrogenase enzymes found in metabolically active cells (Promega, Madison WI). This assay was verified in porcine granulosa cells by showing a linear increase in absorption with increasing cell density.

porcine granulosa cells [5] = test: DNA content and total protein of treated porcine granulosa cells; type: cell-based
P450scc = test: Northern blot of P450scc mRNA in porcine granulosa cells; type: cell-based; conditions: 5 μg ml, 24 h (FIG. 5)
Text: FIG. 5. Scanned image of Northern blot Troglitazone effects on mRNA concentrations of P450scc.
Suppression of transcription of this enzyme would result in decreased progesterone production by granulosa cells.

[6] = tested on: polycystic ovary syndrome; conditions: women with PCO, 400 mg every day, cited from earlier work
HGL5 cells [7] = test: Cell viability of HGL5 cells (MTT to formazan); conditions: HGL5, 4 days, MTT (FIG. 9)
Protocol: Cell viability was assessed by the conversion of MTT to formazan as previously described. Data are the mean ±SEM from 2 studies done in triplicate.
A similar assay was used as described above porcine granulosa cells, using MTT instead of MTS for conversion to formazan.

NWTb3 cells = test: Cell viability of NWTb3 cells (MTT to formazan); conditions: NWTb3, 4 days, MTT (FIG. 11)
Protocol: FIG. 11. […] Cells were grown in 24 well-plates with high-glucose MEM 10% FCS. Cell viability was assessed by the conversion of MTT to formazan as previously described. Data are the mean ±SEM from 2 studies done in triplicate.

MCF-7 cells = test: Cell viability of MCF-7 cells (MTT to formazan); conditions: MCF-7 (non-PPARγ expressing), 4 days, MTT (FIG. 13)
Protocol: FIG. 13. […] MCF-7 cells were treated with increasing concentrations of Troglitazone for 4 days and cell viability was assessed by the conversion of MTT to formazan as previously described. Data are the mean ±SEM from 2 studies done in triplicate.
A non-PPARγ expressing human breast cancer cell line, MCF-7 was tested.

HGL5 cells [8] = tested on: HGL5 cells
Text: Progesterone was corrected for protein concentration. The data represent the mean ±SEM from 2 studies done in triplicate.

Compound: CN(CCOc1ccc(CC2SC(=O)NC2=O)cc1)c1ccccn1 (centres unmarked) [BRL 49653, 5-[4-[2-(N-methyl-N-(2-pyridyl)amino]ethoxy]benzyl]thiazolidine-2,4-dione]
- suppression of progesterone production, dose-response (porcine granulosa cells [1]): suppressed progesterone production by porcine granulosa cells in a dose-dependent fashion
- binding to the PPRE in granulosa cell nuclear extracts (PPARγ [2]): increased binding to the PPRE

Compound: CCCCC/C=C/C=C1/C(=O)C=C[C@@H]1C/C=C\CCCC(=O)O [15d-PGJ2, 15-deoxy-delta^12, 14-prostaglandin J2]
- PPARγ-dependent adipogenesis (PPARγ [3]): activates PPARγ-dependent adipogenesis
- PPARα activation (PPARα): activated PPARα only at high concentrations

Compound: Cc1c(C)c2c(c(C)c1O)CCC(C)(COc1ccc(CC3SC(=O)NC3=O)cc1)O2 (single isomer, unassigned; (+)) [Troglitazone, (+)-5[[4-[(3,4-dihydro-6-hydroxy-2,5,7,8-tetramethyl-2H-1-benzopyran-2-yl)methoxy]phenyl]methyl]-2,4thiazolidinedione]
- suppression of progesterone at single concentration (porcine granulosa cells [1]; 5 μg ml, 24 h (FIG. 7B)): suppression of progesterone in these cells occurred
- time at which progesterone production was suppressed (porcine granulosa cells [1]; 1 or 10 μg ml, up to 24 h (FIG. 2)): ≥ 4 h
- effect of concentration on time of onset of suppression (porcine granulosa cells [1]; 1 vs 10 μg ml (FIG. 2)): did not affect the time of onset of suppression
- potency at suppressing progesterone production relative to the other thiazolidinediones (porcine granulosa cells [1]; 24 h dose-response (FIG. 1)): more potent at suppressing progesterone production than 2 other drugs
- progesterone production in the presence of 25-OH cholesterol (porcine granulosa cells [1]; co-treatment with 25-OH cholesterol 30 μg ml, Troglitazone 1 and 10 μg ml, 24 h (FIG. 4)): suppressed progesterone production
- suppression of progesterone production, dose-response (porcine granulosa cells [1]): suppressed progesterone production by porcine granulosa cells in a dose-dependent fashion
- cell viability (porcine granulosa cells [4]): not a decrease in cell viability
- total protein concentrations versus control (porcine granulosa cells [5]; Troglitazone treatment groups vs control): lower
- DNA content versus control (porcine granulosa cells [5]; Troglitazone-treated vs control cells): not a significant decrease in DNA content
- mRNA concentrations of P450scc (P450scc): did not suppress mRNA concentrations of P450scc
- women with ovulatory menses ([6]; 25 women studied): 2 of the 25
- insulin resistance [6]: reduced
- concentrations causing a loss of cell viability (HGL5 cells [7]): ≥ 0.5 µg·mL
- concentrations causing a loss of cell viability (NWTb3 cells): ≥ 1.0 µg/mL
- cell viability (MCF-7 cells): decreased only with high concentrations
- progesterone production at single concentration (HGL5 cells [8]; 30 μg ml): inhibited progesterone production
- biphasic response at lower concentrations (HGL5 cells [8]; HGL5, 48 h (FIG. 8)): lower concentrations actually increasing progesterone production
- concentrations at which progesterone production was suppressed (HGL5 cells [8]; HGL5, 48 h (FIG. 8)): greater than 10 μg

Compound: CCc1ccc(CCOc2ccc(CC3SC(=O)NC3=O)cc2)nc1 (centres unmarked) [pioglitazone, 5-[4-[2-(5-ethylpyridin-2-yl)ethoxyl]benzyl]thiazolidine-2,4-dione]
- suppression of progesterone production, dose-response (porcine granulosa cells [1]): suppressed progesterone production by porcine granulosa cells in a dose-dependent fashion
